Test results: ChEMBL document CHEMBL3784944, “N-Indolylglycosides bearing modifications at the glucose C6-position as sodium-dependent glucose co-transporter 2 inhibitors” (Bioorg Med Chem, 2016)
Calls of active or inactive are those of the source. The calls are words filed in the database; no cut-off is given here.

Columns and labels:
[1] = target: T1, Sodium/glucose cotransporter 2 (Homo sapiens, UniProt P31639); assay: Inhibition of human SGLT2 expressed in CHO-K1 cells assessed as reduction in [14C]AMG uptake after 120 mins by scintillation counting method; type: cell-based
T1 sequence (P31639 whole entry): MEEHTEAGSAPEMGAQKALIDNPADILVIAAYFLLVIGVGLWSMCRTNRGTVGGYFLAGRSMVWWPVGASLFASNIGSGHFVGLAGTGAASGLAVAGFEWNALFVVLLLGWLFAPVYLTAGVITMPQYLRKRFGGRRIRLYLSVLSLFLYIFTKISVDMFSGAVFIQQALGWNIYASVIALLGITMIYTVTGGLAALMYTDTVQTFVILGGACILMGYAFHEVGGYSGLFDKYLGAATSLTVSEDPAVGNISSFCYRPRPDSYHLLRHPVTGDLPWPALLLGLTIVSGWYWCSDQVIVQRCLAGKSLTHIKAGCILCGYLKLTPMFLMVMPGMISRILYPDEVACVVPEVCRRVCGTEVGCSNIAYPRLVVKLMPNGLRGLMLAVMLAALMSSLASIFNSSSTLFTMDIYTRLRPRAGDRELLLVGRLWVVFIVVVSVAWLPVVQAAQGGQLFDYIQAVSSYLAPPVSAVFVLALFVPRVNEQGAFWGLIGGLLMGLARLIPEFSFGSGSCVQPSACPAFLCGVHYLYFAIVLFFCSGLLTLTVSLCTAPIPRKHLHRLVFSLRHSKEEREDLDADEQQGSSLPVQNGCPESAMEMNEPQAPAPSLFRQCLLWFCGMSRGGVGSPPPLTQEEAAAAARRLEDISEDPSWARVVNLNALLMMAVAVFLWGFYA

Rattus norvegicus [2] = assay: Induction of glucosuria in Sprague-Dawley rat assessed as increase in glucose excretion per 200 g body weight at 50 mg/kg, administered as single dose via oral gavage after 24 hrs by oral glucose tolerance test (reference value: 0.23 mg); type: functional
[3] = Volume of distribution at steady state in Sprague-Dawley rat at 1.1 mg/kg, iv administered via bolus injection measured at 2 to 5 mins post dose by LC-MS/MS analysis; type: ADME, organism-based; conditions: in vivo, read-out: Vdss
[4] = AUC (0 to infinity) in Sprague-Dawley rat at 1.1 mg/kg, iv administered via bolus injection measured at 2 to 5 mins post dose by LC-MS/MS analysis; type: ADME, organism-based; design: dose 1.1 mg/kg, route intravenous, time infinity; conditions: in vivo
[5] = Cmax in Sprague-Dawley rat at 1.1 mg/kg, po measured at 15 mins to 24 hrs post dose by LC-MS/MS analysis; type: ADME, organism-based; design: dose 1.1 mg/kg, route oral; conditions: in vivo
Rattus norvegicus [6] = assay: Reduction of blood glucose level in Sprague-Dawley rat at 50 mg/kg, po administered as single dose via oral gavage after 0.5 to 1 hr by oral glucose tolerance test; type: functional, organism-based
Rattus norvegicus [7] = assay: Effect on glucose AUC in Sprague-Dawley rat at 50 mg/kg, po administered as single dose via oral gavage after 0.5 to 1 hr by oral glucose tolerance test; type: functional, organism-based
[8] = Half life in Sprague-Dawley rat at 1.1 mg/kg, po by LC-MS/MS analysis; type: ADME, organism-based; conditions: in vivo
[9] = Clearance in Sprague-Dawley rat at 1.1 mg/kg, iv administered via bolus injection measured at 2 to 5 mins post dose by LC-MS/MS analysis; type: ADME, organism-based; conditions: in vivo
[10] = Tmax in Sprague-Dawley rat at 1.1 mg/kg, po measured at 15 mins to 24 hrs post dose by LC-MS/MS analysis; type: ADME, organism-based; conditions: in vivo
[11] = AUC (0 to infinity) in Sprague-Dawley rat at 1.1 mg/kg, po measured at 15 mins to 24 hrs post dose by LC-MS/MS analysis; type: ADME, organism-based; design: dose 1.1 mg/kg, time infinity, route oral; conditions: in vivo
[12] = Oral bioavailability in Sprague-Dawley rat at 1.1 mg/kg measured at 15 mins to 24 hrs after drug challenge by LC-MS/MS analysis; type: ADME, organism-based; conditions: in vivo
[13] = Half life in Sprague-Dawley rat at 1.1 mg/kg, iv administered via bolus injection by LC-MS/MS analysis; type: ADME, organism-based; conditions: in vivo
CHO-K1 = assay: Selectivity ratio of EC50 for human SGLT1 expressed in CHO-K1 cells to EC50 for human SGLT2 expressed in CHO-K1 cells; type: cell-based
Rattus norvegicus [14] = assay: Induction of glucosuria in Sprague-Dawley rat assessed as increase in glucose excretion at 50 mg/kg administered as single dose via oral gavage after 24 hrs by oral glucose tolerance test; type: functional, organism-based

SMILES	EC50 [1]	also measured
O=C(NC[C@H]1O[C@@H](n2cc(Cc3ccc(C4CC4)cc3)c3c(Cl)cccc32)[C@H](O)[C@@H](O)[C@@H]1O)C(Cl)Cl	184 nM	–
O=C(CSc1ccccc1)NC[C@H]1O[C@@H](n2cc(Cc3ccc(C4CC4)cc3)c3c(Cl)cccc32)[C@H](O)[C@@H](O)[C@@H]1O	2090 nM	–
O[C@@H]1[C@@H](O)[C@H](n2cc(Cc3ccc(C4CC4)cc3)c3c(Cl)cccc32)O[C@H](Cn2cc(C3CC3)nn2)[C@H]1O	359 nM	–
COCCCNC(=S)NC[C@H]1O[C@@H](n2cc(Cc3ccc(C4CC4)cc3)c3c(Cl)cccc32)[C@H](O)[C@@H](O)[C@@H]1O	586 nM	–
CCOC(=O)C(=O)NC[C@H]1O[C@@H](n2cc(Cc3ccc(C4CC4)cc3)c3c(Cl)cccc32)[C@H](O)[C@@H](O)[C@@H]1O	249 nM	–
CC(=O)NC[C@H]1O[C@@H](n2cc(Cc3ccc(C4CC4)cc3)c3c(Cl)cccc32)[C@H](O)[C@@H](O)[C@@H]1O	42 nM	Activity (Rattus norvegicus [2]): 101 mg; Vd [3]: 2.7 L/kg; AUC(0-inf) [4]: 996 ng·h/mL; Cmax [5]: 25.2 ng/mL; Activity (Rattus norvegicus [6]): Active; Activity (Rattus norvegicus [7]): inactive; half-life [8]: 2.5 h; clearance [9]: 18.8 mL/min/kg; Tmax [10]: 1.2 h; AUC(0-inf) [11]: 99 ng·h/mL; bioavailability [12]: 10%; half-life [13]: 3.2 h
CCOC(=O)CCC(=O)NC[C@H]1O[C@@H](n2cc(Cc3ccc(C4CC4)cc3)c3c(Cl)cccc32)[C@H](O)[C@@H](O)[C@@H]1O	588 nM	–
O=C(NCCCCl)NC[C@H]1O[C@@H](n2cc(Cc3ccc(C4CC4)cc3)c3c(Cl)cccc32)[C@H](O)[C@@H](O)[C@@H]1O	151 nM	Ratio EC50 (CHO-K1): 6
CNC(=S)NC[C@H]1O[C@@H](n2cc(Cc3ccc(C4CC4)cc3)c3c(Cl)cccc32)[C@H](O)[C@@H](O)[C@@H]1O	315 nM	–
O[C@@H]1[C@@H](O)[C@H](n2cc(Cc3ccc(C4CC4)cc3)c3c(Cl)cccc32)O[C@H](Cn2cc(C3CCCC3)nn2)[C@H]1O	1590 nM	–
OC[C@H]1O[C@@H](n2cc(Cc3ccc(C4CC4)cc3)c3c(Cl)cccc32)[C@H](O)[C@@H](O)[C@@H]1O	14 nM	Ratio EC50 (CHO-K1): 2
O=C(CCCl)NC[C@H]1O[C@@H](n2cc(Cc3ccc(C4CC4)cc3)c3c(Cl)cccc32)[C@H](O)[C@@H](O)[C@@H]1O	160 nM	–
O=C(NC[C@H]1O[C@@H](n2cc(Cc3ccc(C4CC4)cc3)c3c(Cl)cccc32)[C@H](O)[C@@H](O)[C@@H]1O)c1ccc(CCl)cc1	2590 nM	–
O=C(NC[C@H]1O[C@@H](n2cc(Cc3ccc(C4CC4)cc3)c3c(Cl)cccc32)[C@H](O)[C@@H](O)[C@@H]1O)C1CC1	552 nM	–
O[C@@H]1[C@@H](O)[C@H](n2cc(Cc3ccc(C4CC4)cc3)c3c(Cl)cccc32)OC[C@H]1O	–	Ratio EC50 (CHO-K1): 2
O=C(CCBr)NC[C@H]1O[C@@H](n2cc(Cc3ccc(C4CC4)cc3)c3c(Cl)cccc32)[C@H](O)[C@@H](O)[C@@H]1O	151 nM	–
COc1ccc(C(=O)NC[C@H]2O[C@@H](n3cc(Cc4ccc(C5CC5)cc4)c4c(Cl)cccc43)[C@H](O)[C@@H](O)[C@@H]2O)cc1	2370 nM	–
COC(=O)c1cn(C[C@H]2O[C@@H](n3cc(Cc4ccc(C5CC5)cc4)c4c(Cl)cccc43)[C@H](O)[C@@H](O)[C@@H]2O)nn1	119 nM	–
O=C(NCCCl)NC[C@H]1O[C@@H](n2cc(Cc3ccc(C4CC4)cc3)c3c(Cl)cccc32)[C@H](O)[C@@H](O)[C@@H]1O	598 nM	–
O=C(Cc1cccs1)NC[C@H]1O[C@@H](n2cc(Cc3ccc(C4CC4)cc3)c3c(Cl)cccc32)[C@H](O)[C@@H](O)[C@@H]1O	499 nM	–
CCNC(=S)NC[C@H]1O[C@@H](n2cc(Cc3ccc(C4CC4)cc3)c3c(Cl)cccc32)[C@H](O)[C@@H](O)[C@@H]1O	716 nM	–
O=C(NC[C@H]1O[C@@H](n2cc(Cc3ccc(C4CC4)cc3)c3c(Cl)cccc32)[C@H](O)[C@@H](O)[C@@H]1O)c1ccno1	387 nM	–
CC(C)C(=O)NC[C@H]1O[C@@H](n2cc(Cc3ccc(C4CC4)cc3)c3c(Cl)cccc32)[C@H](O)[C@@H](O)[C@@H]1O	649 nM	–

Now from value to compound, other results behind:

EC50 [1]	SMILES	also measured
485 nM	COc1ccc(NC(=S)NC[C@H]2O[C@@H](n3cc(Cc4ccc(C5CC5)cc4)c4c(Cl)cccc43)[C@H](O)[C@@H](O)[C@@H]2O)cc1	–
237 nM	NC[C@H]1O[C@@H](n2cc(Cc3ccc(C4CC4)cc3)c3c(Cl)cccc32)[C@H](O)[C@@H](O)[C@@H]1O	Ratio EC50 (CHO-K1): 9
118 nM	CCOC(=O)CC(=O)NC[C@H]1O[C@@H](n2cc(Cc3ccc(C4CC4)cc3)c3c(Cl)cccc32)[C@H](O)[C@@H](O)[C@@H]1O	–
2720 nM	O=C(O)c1cn(C[C@H]2O[C@@H](n3cc(Cc4ccc(C5CC5)cc4)c4c(Cl)cccc43)[C@H](O)[C@@H](O)[C@@H]2O)nn1	–
1000 nM	CCOC(=O)NC(=O)NC[C@H]1O[C@@H](n2cc(Cc3ccc(C4CC4)cc3)c3c(Cl)cccc32)[C@H](O)[C@@H](O)[C@@H]1O	–
515 nM	CCOC(=O)CNC(=O)NC[C@H]1O[C@@H](n2cc(Cc3ccc(C4CC4)cc3)c3c(Cl)cccc32)[C@H](O)[C@@H](O)[C@@H]1O	–
284 nM	COC(=O)C(=O)NC[C@H]1O[C@@H](n2cc(Cc3ccc(C4CC4)cc3)c3c(Cl)cccc32)[C@H](O)[C@@H](O)[C@@H]1O	Ratio EC50 (CHO-K1): 20
286 nM	CCOC(=O)CNC(=S)NC[C@H]1O[C@@H](n2cc(Cc3ccc(C4CC4)cc3)c3c(Cl)cccc32)[C@H](O)[C@@H](O)[C@@H]1O	Ratio EC50 (CHO-K1): 3
39 nM	COC(=O)CC(=O)NC[C@H]1O[C@@H](n2cc(Cc3ccc(C4CC4)cc3)c3c(Cl)cccc32)[C@H](O)[C@@H](O)[C@@H]1O	Activity (Rattus norvegicus [14]): inactive
3440 nM	O=C(O)CC(=O)NC[C@H]1O[C@@H](n2cc(Cc3ccc(C4CC4)cc3)c3c(Cl)cccc32)[C@H](O)[C@@H](O)[C@@H]1O	–
655 nM	CCOc1cn(C[C@H]2O[C@@H](n3cc(Cc4ccc(C5CC5)cc4)c4c(Cl)cccc43)[C@H](O)[C@@H](O)[C@@H]2O)nn1	–
113 nM	O=C(CCl)NC[C@H]1O[C@@H](n2cc(Cc3ccc(C4CC4)cc3)c3c(Cl)cccc32)[C@H](O)[C@@H](O)[C@@H]1O	–
